Tests used:
Plutella xylostella = assay: Action against Plutella xylostella caterpillars (sprayed cabbage plants); type: in vivo; settings: 72 h, 400 ppm spray mixture, third-stage caterpillars, evaluation 3 days later, read-out: % activity (percentage reduction in population and percentage reduction in feeding damage)
Description: (§1) Young cabbage plants are sprayed with an aqueous emulsion spray mixture comprising 400 ppm of test compound. After the spray-coating has dried, the cabbage plants are populated with 10 caterpillars of Plutella xylostella in the third stage and placed in a plastics container. Evaluation is made 3 days later. The percentage reduction in population and the percentage reduction in feeding damage (% activity) are determined by comparing the number of dead caterpillars and the feeding damage on the treated plants with that on the untreated plants.

Diabrotica balteata = assay: Action against Diabrotica balteata larvae (sprayed maize seedlings); type: in vivo; settings: 144 h, 400 ppm spray mixture, second-stage larvae, evaluation 6 days later, read-out: % activity (percentage reduction in population)
Description: Maize seedlings are sprayed with an aqueous emulsion spray mixture comprising 400 ppm of the test compound. After the spray-coating has dried, the maize seedlings are populated with 10 Diabrotica balteata larvae in the second stage and placed in a plastics container. Evaluation is made 6 days later. The percentage reduction in population (% activity) is determined by comparing the number of dead larvae on the treated plants with that on untreated plants.

Heliothis virescens = assay: Action against Heliothis virescens caterpillars (sprayed soybean plants); type: in vivo; settings: 144 h, 400 ppm spray mixture, first-stage caterpillars, evaluation 6 days later, read-out: % activity (percentage reduction in population and percentage reduction in feeding damage)
Description: Young soybean plants are sprayed with an aqueous emulsion spray mixture comprising 400 ppm of test compound. After the spray-coating has dried, the soybean plants are populated with 10 caterpillars of Heliothis virescens in the first stage and placed in a plastics container. Evaluation is made 6 days later. The percentage reduction in population and the percentage reduction in feeding damage (% activity) are determined by comparing the number of dead caterpillars and the feeding damage on the treated plants with that on untreated plants.

Spodoptera littoralis = assay: Action against Spodoptera littoralis caterpillars (sprayed soybean plants); type: in vivo; settings: 72 h, 400 ppm spray mixture, third-stage caterpillars, evaluation 3 days later, read-out: % activity (percentage reduction in population and percentage reduction in feeding damage)
Description: as §1, with “Young soybean plants are” for “Young cabbage plants are”, “dried, the soybean plants are” for “dried, the cabbage plants are”, “caterpillars of Spodoptera littoralis in the” for “caterpillars of Plutella xylostella in the”, “that on untreated plants.” for “that on the untreated plants.”

Row | melting point [°C] | Structure (SMILES) | inhibition at 400 ppm (Plutella xylostella) [%] | inhibition at 400 ppm (Diabrotica balteata) [%] | inhibition at 400 ppm (Heliothis virescens) [%] | inhibition at 400 ppm (Spodoptera littoralis) [%]
1 | 207 to 211 | CCC1=C(C(O)(c2ccc(C(F)(F)F)cc2)c2ccc(C(F)(F)F)cc2)CC[N+]([O-])(Cc2ccc(NC(=O)OC(C)C)cc2)C1 (centres unmarked) [Compound 1.11] | – | – | – | –
2 | 188 to 190 | CC(C)OC(=O)Nc1ccc(C[N+]2([O-])CC[C@@H](C(O)(c3ccc(C(F)(F)F)cc3)c3ccc(C(F)(F)F)cc3)[C@H](C)C2)cc1 (some centres unmarked) [Compound 2.5] | > 80 | > 80 | > 80 | > 80
3 | 66 to 67 | CC(C)OC(=O)Nc1ccc(CN2CC[C@@H](C(O)(c3ccc(C(F)(F)F)cc3)c3ccc(C(F)(F)F)cc3)[C@H](C)C2)cc1 [Compound 2.6] | > 80 | > 80 | > 80 | > 80

— US20050107257A1, “Derivatives of (1-benzyl-piperidine-4-yl)-diphenyl-methanol and their use as pesticide” (priority 2002, published 2005)
